Where two headings read alike, the source gives them in different places. Marks after values point to notes of the source that are not given here. Ends that are not written are not given here.
What was measured:
[1] = tested on: Listeria monocytogenes (ATCC 19112); conditions: preliminary peptide screen, peptide purities 50% to 81.9%, tested 1-64 µg/mL, broth microdilution, mean ± SD, n = 3
Experimental: (§1) Antimicrobial activity of histone H5 against a variety of Gram-positive and Gram-negative planktonic bacteria was evaluated using a broth microdilution assay.
(§2) The antimicrobial activity of these peptides against Gram-positive and Gram-negative planktonic bacteria was evaluated using broth microdilution assays.
(§3) The bacterial strains tested in this study were Gram-positive bacteria (Bacillus cereus (ATCC 11778), methicillin-sensitive Staphylococcus aureus (ATCC 6538), methicillin-resistant Staphylococcus aureus (ATCC 29247), Listeria monocytogenes (ATCC 19112), Enterococcus faecalis (clinical isolate) and vancomycin-resistant Enterococcus (ATCC 51299)) and Gram-negative bacteria Escherichia coli K12 (ATCC 29425), Escherichia coli (O157:H7), Pseudomonas aeruginosa (ATCC 15442) and Salmonella typhimurium (ATCC 1535)). Bacterial colonies from glycerol stocks were plated on LB agar plates (BHI agar plates for L. monocytogenes) and incubated overnight at 37 °C. Single colonies from these plates were grown in 3 mL of LB broth (BHI broth for L. monocytogenes) overnight at 37 °C and shaken at 250 rpm. […] The bacterial suspension was pelleted at 3,000 × g, 4 °C for 10 minutes and washed with PBS (twice), and then adjusted to 10^5–10^6 CFUs/mL in PBS.
(§4) Supplementary Information
(§5) Broth microdilution assay
(§6) The protocol for this step of the project was based on established methods22. Histone H5 or the peptides were dissolved in sterile water, pH 7.4, serially two-fold diluted and aliquoted in a 1:1 (v/v) ratio with bacteria. Kanamycin or ampicillin served as a positive control for inhibition, and sterile water (pH 7.4) as a negative control for inhibition. The tubes were then incubated for 3 hours at 37°C an d shaken at 200 rpm. Next, 100 µL of each tube and 100µL of LB broth (BHI broth for L. monocytogenes) was plated in wells of a 96-well microplate. The microplate was incubated in the EON microplate reader overnight at 206 oscillations/min and at 37°C. During this period, the EON microplate spectrophotometer and Gen5 data analysis software (BioTek, Winooski, VT, USA) were used to monitor the growth of bacteria by measuring the optical density at 600 nm every 30 minutes for 18 hours. The lowest protein concentration without visible bacterial growth was designated as the minimum inhibitory concentration (MIC). Bacteria (10 µL) from the wells at MIC, MIC x 2 and MIC x 3 concentrations of H5 were plated on LB agar (BHI agar for L. monocytogenes) and incubated at 37°C for 18 hours. The lowest concentration of histone H5 without a single colony was designated as the minimum bactericidal concentration (MBC).

[2] = tested on: Pseudomonas aeruginosa (ATCC 15442); conditions: preliminary peptide screen, peptide purities 50% to 81.9%, tested 1-64 µg/mL, broth microdilution, mean ± SD, n = 3
Experimental: as §1, §2, §3, §4, §5, §6

P. aeruginosa biofilms = conditions: cited from earlier work
Description: (§7) L. monocytogenes and P. aeruginosa are major human pathogens that cause serious illnesses through foodborne and hospital-acquired infections, respectively. […] Moreover, an estimated 51,000 healthcare-associated infections leading to 440 deaths per year in the United States are caused by P. aeruginosa. Additionally, both pathogens have the ability to form biofilms, which enhances their persistence in unfavourable environ ...

[3] = tested on: L. monocytogenes biofilms; conditions: 6.8 µg/mL, 2 and 4 hours of treatment, cited from earlier work
Description: as §7

E. coli = tested on: E. coli; parameters: method as in PMID 22723861, PMID 16978580; conditions: cited from earlier work
P. aeruginosa = tested on: P. aeruginosa; parameters: method as in PMID 22723861, PMID 16978580; conditions: cited from earlier work
S. aureus = tested on: S. aureus; parameters: method as in PMID 22723861, PMID 16978580; conditions: cited from earlier work
E. faecalis = tested on: E. faecalis; parameters: method as in PMID 22723861, PMID 16978580; conditions: cited from earlier work

With “RVKASRRSASHPTYSEMIAAAIRAEKSRGG [H5(16–45)]” the MIC [1] was “inactive”, the MIC ([1]; listed as H5 (16–45)) was “NI ^‡ (Non-inhibitory at the highest concentration tested (64 µg/mL))” and the MIC [2] was “non-inhibitory”. The MIC ([2]; listed as H5 (16–45)) was “NI ^‡ (Non-inhibitory at the highest concentration tested (64 µg/mL))”.
For LSIRRLLAAGVLKQTKGVGA [H5(71–90)], the MIC [1] was >64^† µg/mL and the MIC [2] was 26.7 ± 14.1 mg/L.
For EMIAAAIRAEKSRGGSSRQS [H5(31–50)], the MIC [1] was “inactive”, the MIC ([1]; listed as H5 (31–50)) was “NI ^‡ (Non-inhibitory at the highest concentration tested (64 µg/mL))” and the MIC [2] was “non-inhibitory”. The MIC ([2]; listed as H5 (31–50)) was “NI ^‡ (Non-inhibitory at the highest concentration tested (64 µg/mL))”.
In the case of VLKQTKGVGASGSFRLAKSD [H5(81–100)], the MIC [1] is reported as “inactive”, the MIC ([1]; listed as H5 (81–100)) is reported as “NI ^‡ (Non-inhibitory at the highest concentration tested (64 µg/mL))” and the MIC [2] is reported as “non-inhibitory”. For the same substance, the MIC ([2]; listed as H5 (81–100)) was “NI ^‡ (Non-inhibitory at the highest concentration tested (64 µg/mL))”.
For magainin II, the MBEC (P. aeruginosa biofilms) is listed as > 640 µg/mL.
For paenibacterin, the “disruption of established biofilms (in words)” value ([3]; biofilms developed statically at 30 °C) is listed as “effective” and the “disruption of established biofilms (in words)” value ([3]; stronger biofilms developed at 37 °C) is listed as “not effective”.
With “EMIAAAIRAEKSRGGSSRQSIQKYIKSHYK [H5(31–60)]” the MIC [1] was “inactive”, the MIC ([1]; listed as H5 (31–60)) was “NI ^‡ (Non-inhibitory at the highest concentration tested (64 µg/mL))” and the MIC [2] was “non-inhibitory”. The MIC ([2]; listed as H5 (31–60)) was “NI ^‡ (Non-inhibitory at the highest concentration tested (64 µg/mL))”.
For “Human β-defensin-3: a human host defence antimicrobial peptide (GIINTLQKYYCRVRGGRCAVLSCLPKEEQIGKCSTRGRKCCRRKK; ends and bridges not checked; cysteine pairing not given here; UniProt P81534 23-67, looked up)”, the MIC (E. coli) is given as 6 mg/L, the MIC (P. aeruginosa) is given as 13 mg/L and the MIC (S. aureus) is given as 12 mg/L. For the same substance, the MIC (E. faecalis) was > 512 mg/L.
For “melittin: CAMP tested against P. aeruginosa biofilms in the literature”, the MBEC (P. aeruginosa biofilms) is given as > 640 µg/mL.
In the case of LL-37, the MBEC (P. aeruginosa biofilms) is listed as 640 µg/mL and the MBEC/MIC ratio (P. aeruginosa biofilms) is listed as 5–80.
